According to a melting point compilation (Tetko et al.; mined from patent text by program, amines drawn as free bases though some values may be those of a salt):

Compound | melting point [°C]
CC1CCC2C(C)(C)C(=O)OC3OC4(C)CCC1C32OO4 (single isomer, unassigned; (+)) | 117 to 118
NC(=O)c1cccc(OCc2ccc(F)cc2)c1 | 161 to 162
CCOC(=O)c1cc(O)ccc1OCC | 49 to 53
CC(C)[C@]1(CO)CCC(C)(C)C(=O)O1 | 178 to 181
CCCCNc1c(N)c(S)nc(C)c1C(=O)OCC | 103 to 105
Nc1ccc2[nH]c(C(=O)N3CCC(Cc4ccccc4)CC3)cc2c1 | 175 to 180
CC(C)c1nc(O)cc(=O)n1C | 159
NC(=O)c1c(-c2cccc(F)c2)c(Cl)n2c1CNCC2 | 226 to 228
NS(=O)(=O)c1ccc(C2CCN(c3cc([N+](=O)[O-])ccn3)CC2)cc1 | 215 to 217
C=Cc1ccc(S(=O)(=O)Nc2ncnc(Cl)c2Cc2c(OC)cccc2OC)cc1 | 197 to 198
CC1Cc2cc(N3C[C@H](CO)OC3=O)ccc2N1C(=O)OCc1ccccc1 (stereo not given in full) | 144 to 145
CCOC(Cc1ccc(OCCN2CCSc3ccccc32)cc1)C(=O)NCc1ccccc1 (stereo not given) | 92 to 93
CCc1[nH]n(C2CCCC2)c2nc(-c3ccccc3OCCCN3CCOCC3)nc(=O)c1-2 | 220 to 221
O=C(O)c1ccc(F)cc1NC(=O)C(F)(F)F | 166 to 168
CN(C)Cc1nnc2n1-c1ccc(Cl)cc1C(c1ccccc1)=NC2 | 168 to 171
CC(C)Sc1c(C(=O)O)oc(Br)c1Br | 130 to 131
COc1ccc(CC(=Nc2ccccc2)NC(=S)NCCO)cc1 | 117 to 119

Compound | melting point [°C]
CCc1c(C)cccc1C(=O)NC1CN2CCC1CC2 (racemic) | 125
CCC1(CCOS(C)(=O)=O)C(=O)N2CC=CC(C(=O)OC)N2C1=O (stereo not given) | 94 to 96
CCN1CCN(Cc2nc3sc(Br)cc3c(=O)n2-c2ccccc2Cl)CC1 | 155 to 158
O=c1[nH]c2sc3c(F)cccc3c2[nH]c1=O | > 35
COc1cccnc1CO | 72.5 to 73.5
CC(=O)SCC(=O)NC(=O)Cc1ccccc1 | 153 to 155
Nc1ccc(C(=O)O)cc1S(N)(=O)=O | 214 to 219
CCCCC1(N(C)C)CCC(c2[nH]c3ccccc3c2C)(c2[nH]c3ccccc3c2CCN)CC1 (stereo not given) | 105 to 112
Cc1ccc(S(=O)(=O)OCC2CCc3scnc3C2)cc1 (stereo not given) | 87 to 88
O=C(Oc1ccccc1)Sc1nc2ccccc2n1C1CCN(C(=O)Oc2ccccc2)CC1 | 200 to 203
CNc1c(N)cnn1C | 185 to 188
Cn1c(=N)c(F)cn(S(=O)(=O)c2ccccc2)c1=O | 144
COC(C)=CC(=O)Nc1cccc(C)c1 | 106
CCOC(=O)Cn1nc2ccc(NCCCN3CCC(OC(c4ccccc4)c4ccccc4)CC3)nn2c1=O | 137 to 139
COc1cncc(OC)c1CCCO | 88 to 89
CCCCCCCCCCCCCCCCCCOc1ccc(NC(=O)c2ccc(OC(C)=O)cc2)cc1OCCCCCCCCCCCCCCCCCC | 107
O=C(Cc1cccnc1)c1ccc2c(c1)CCC2 | 55 to 56

Continued, values first:

melting point [°C] | Compound
245 to 249 | CCC1C(=O)Nc2cc3[nH]c(-c4ccc(NC(C)=O)cc4OC)nc3cc21 (stereo not given)
210 | COc1cc2c(c(OC)c1OC)-c1cc(I)c(O)cc1[C@@H](NC(C)=O)CC2
88 to 89 | CC(C)(C)OC(=O)Nc1cccc(C(=O)OCOC(=O)C(C)(C)C)c1
203 to 205 | O=C(NNC(=O)c1ccc(Oc2ccccc2)cc1)c1ccc(O)cc1
187 | CC(C)(C)C(COC(N)=O)(NC(=O)c1ccccc1)c1c[nH]c2ccc(Br)cc12 (stereo not given)
169 to 172 | Cc1cn(-c2cc(NC(=O)c3cccc4cc(O)ccc34)cc(C(F)(F)F)c2)cn1
255 to 256 | CC1(C)OC(=O)Nc2ccc(-c3coc(C#N)c3)cc21
175 to 177 | CC(C)(C)c1cc(SC(Sc2cc(C(C)(C)C)c(O)c(C(C)(C)C)c2)c2cc(C(C)(C)C)c(O)c(C(C)(C)C)c2)cc(C(C)(C)C)c1O
145 to 146 | CCCC(=O)c1cc2c(=O)c(C(=O)OCC)cn(CC)c2cc1C
50 to 55 | COc1cc(OC)nc(OC(C(=O)O)C(C)(Oc2ccccc2)c2ccccc2)n1 (stereo not given)
165 to 166 | CC(=O)OC1=C(C(=O)c2ccc(C)cc2)C(c2ccc(OC(F)(F)F)cc2)N(c2ccc(C)nn2)C1=O (stereo not given)
90 to 91 | CCOC(=O)c1cccnc1NC(=O)Cc1cccc(Oc2ccccc2)c1
178 to 179 | COc1cc2c3c(Br)cc(OC)c(OC)c3n(S(C)(=O)=O)c2cc1OC
215 to 224 | O=C(O)c1cn(-c2c[nH]nn2)c2cc(F)c(F)cc2c1=O
71 to 72 | C[C@@H](N1CCN(c2nnn(Cc3ccc(C(F)(F)F)cc3)n2)CC1)[C@](O)(Cn1cncn1)c1ccc(F)cc1F
> 260 | O=C(O)Cc1cc(C(=O)c2cccc(C(=O)O)c2)ccc1O
155 to 175 | CC(C)(C)C1Cc2cc(OCC(=O)O)c(Cl)c(Cl)c2C1=O (stereo not given)
117 | COc1cccc(C(=O)NCCc2ccc(-c3ccc(OC(C)(C)C(=O)O)cc3)cc2)c1

melting point [°C] | Compound
94 to 97 | CCCC=C(c1ccccc1N1CCCCC1)C(C(N)=O)c1ccc(C(=O)OCC)cc1 (stereo not given)
230 to 232 | NC(=O)Nc1ccc2oc([N+](=O)[O-])c(-c3ccccc3)c2c1
> 300 | Cc1nc(=O)c(O)c(-c2ccc(Cc3ccc(F)cc3)cn2)[nH]1
98 | CCOC(=O)C1=C(C)Nc2nc(N)nc(N)c2C1c1ccc(OC)cc1 (stereo not given)
144 to 148 | O[C@@H]1c2cc3c(cc2CC[C@H]1NCCc1ccccc1)CCO3 (relative stereo)
101 to 108 | CC(C)c1ccc2c(c1)OCc1ccc(C#N)cc1C2=O
208 to 210 | Cc1cc(=O)[nH]c2cc(OCCCN3CCN(C(c4ccccc4)c4ccccc4)CC3)ccc12
202 | Cc1c(C(=O)Nc2ccc(N3CCC(NCCO)CC3)c(C#N)c2)cnn1-c1ccc(C(F)(F)F)cc1
127 to 128 | COc1ccc(CCc2cc3cc(C#N)ccc3o2)c(CC(=O)OCc2ccccc2)c1
148 to 149 | COC(=O)c1nc(-c2ccc(Cl)cc2F)cc(N)c1Br
146 | CC(CCC(=O)O)C1CCC2C3C(O)CC4CC(O[Si](C)(C)C(C)(C)C)CCC4(C)C3CC(O)C12C (stereo not given)
162 to 163 | Clc1ccc(CSc2nnc(-c3ccc4occc4c3)o2)cc1
238 to 240 | CN(C)C(=O)NCc1ccc(Nc2n[nH]c3ncnc(Nc4cccc(Cl)c4)c23)cc1
184 to 188 | Cc1cccc(C(=O)N(NC(=O)NS(=O)(=O)c2ccc(Cl)cc2)C(C)(C)C)c1
149 to 150 | CCOC(=O)c1cc2cc(N(CC)C(C)=O)ccc2[nH]1
203 to 205 | O=C(NC1CCCc2cc(C(=O)O)ccc21)OCc1ccccc1 (stereo not given)
148 to 150 | Cc1ccc(CCOc2ccc(NC(=O)N(C)C)cc2)nc1
293 | CN1CCN(NC(=O)Nc2cccc3c2C(=O)c2c-3n[nH]c2-c2ccc(N3CCN(C)CC3)cc2)CC1
